Experimental findings from US8691210B2, “Methods and compositions for generating an immune response by inducing CD40 and pattern recognition receptors and adaptors thereof” (priority 2006, dated 2014) are described below.

Assay [1] deals with human DCs. The experiment in a line: Cytokine (IL-12p70, IL-6) ELISA of human DC culture supernatants. Format: cell-based. Particulars: iCD40-DCs stimulated with the named TLR ligand. How it is done: Approximately 2×10^6 cells/ml were cultured in a 24-well dish and transduced with adenoviruses at 10,000 viral particle (vp)/cell (−160 MOI) for 90 min at 37° C. and 5% CO2. Immediately after transduction DCs were stimulated with MPL, FSL-1, Pam3CSK4 (InvivoGen, San Diego, Calif.), LPS (Sigma-Aldrich, St. Louis, Mo.), AP20187 (kind gift from ARIAD Pharmaceuticals, Cambridge, Mass.) or maturation cocktail (MC), containing 10 ng/ml TNF-alpha, 10 ng/ml IL-1beta, 150 ng/ml IL-6 (R&D Systems, Minneapolis, Minn.) and 1 micrograms/ml of PGE2 (Cayman Chemicals, Ann Arbor, Mich.). In T cell assays DCs were pulsed with 50 micrograms/ml of PSMA or MAGE 3 peptide 24 hours before and after adenoviral transduction.
Cell surface staining was done with fluorochrome-conjugated monoclonal antibodies (BD Biosciences, San Diego, Calif.). Cells were analyzed on a FACSCalibur cytometer (BD Biosciences, San Jose, Calif.). Cytokines were measured in culture supernatants using enzyme-linked immunosorbent assay kits for human IL-6 and IL-12p70 (BD Biosciences).
(An ELISA detects its analyte on a solid surface through an enzyme-linked reagent.)

In assay [2] the test system is human SOCS1. Briefly: Real time Q-PCR assay for human SOCS1 in DCs. The format is cell-based. The text has this:
Total RNA was purified and reverse transcribed with random hexamers using SuperScript II RTase (Invitrogen, Carlsbad, Calif.). mRNA levels were quantified in DCs by subjecting cDNA to TaqMan PCR analysis using the GeneAmp 5700 Sequence Detection System (Applied Biosystems, Foster City, Calif.). Pre-developed sequence detection reagents (Applied Biosystems) specific for human SOCS1 and 18S rRNA, including forward and reverse primers as well as a fluorogenic TaqMan FAM-labeled hybridization probe, were supplied as mixtures and were used at 1 microliter/20 microliter PCR. Samples were run in duplicates. The level of SOCS1 expression in each sample was normalized to the level of 18S rRNA from the same sample using the comparative 2-ΔΔCT method^21.

The test system of assay [3] is primary bone marrow-derived DCs (BMDCs). Briefly: iCD40 functionality in primary BMDCs (surface markers, intracellular IL-12 staining). The format is cell-based, murine. The note with it: stimulation with LPS and CD40L. The source says:
A helper-dependent, […] adenoviral vector, named Ad-iCD40-GFP, was engineered to express both iCD40 and EGFP under the control of the CMV early/immediate promoter/enhancer. Ad-iCD40-GFP successfully transduced and expressed the iCD40 transgene, as well as the EGFP marker, in purified BMDCs (FIG. 11A,B). […] The effects of Ad-iCD40-GFP on BMDCs using intracellular cytokine staining to evaluate DC expression of the TH1-polarizing cytokine, IL-12 was then investigated. These findings confirmed numerous previous reports that an empty adenoviral vector can contribute to background fluorescence readings by stimulating the production of low levels of this cytokine. (FIG. 11D)^53. […] However, AP20187 exposure of these iCD40-expressing DCs managed to reproducibly overcome these cumulative effects to further increase the percentage of IL-12′ DCs.

The subject of assay [4] is BMDCs. Briefly: BMDC survival (GM-CSF deprivation, wortmannin). Format: cell-based. The method, then:
To further test the hypothesis that PI3K and Akt are common regulators for innate and acquired immune signal-mediated DC survival, various concentrations (0.05-5 μM) of PI3K inhibitor, wortmannin, in BMDCs treated with LPS or anti-CD40 were tested.
To more directly investigate the role of Akt in PI3K-mediated DC survival, a previously described constitutively active Akt (M-Akt) allele, consisting of full length Akt, targeted to intracellular membranes with a myristoylation-targeting sequence from c-Src^62 was used. […] Therefore, to test the possibility that the efficient lipid raft localization of Akt improve its functions, this construct was compared with several distinct deregulated Akt alleles, containing myristoylation-targeting sequences from Src family kinases Src, Fyn and Lck fused to AAkt. The pleckstrin homology (PH) domain (residues 1-102) was removed to further improve Akt activity when PI3K is limiting^64. […] Therefore, MF-ΔAkt was used in subsequent experiments. Moreover, for improved expression in BMDCs, replication-defective adenovirus, Ad-MF-ΔAkt, expressing functionally optimized Akt was generated. Consistently, Ad-MF-ΔAkt led to higher GSK3α/β phosphorylation in BMDCs, compared with Ad-M-Akt^62. […] Thus, functionally optimized Akt almost completely suppresses induction of DC death by PI3K (but not Src) inhibition. […]

Assay [5] concerns Naive CD4+CD45RA+ T cells. Briefly: Polarization of naive T helper cells. The note with it: tetanus toxoid-pulsed DCs, restimulation with TTp30. The format is cell-based, human. The source says:
Naïve CD4+CD45RA+ T-cells from HLA-DR11.5-positive donors (genotyped using FASTYPE HLA-DNA SSP typing kit; BioSynthesis, Lewisville, Tex.) were isolated by negative selection using naïve CD4+ T cell isolation kit (Miltenyi Biotec, Auburn, Calif.). T cells were stimulated with autologous DCs pulsed with tetanus toxoid (5 FU/ml) and stimulated with various stimuli at a stimulator to responder ratio of 1:10. After 7 days, T cells were restimulated with autologous DCs pulsed with the HLA-DR11.5-restricted helper peptide TTp30 and transduced with adenovector Ad-iCD40. Cells were stained with PE-anti-CD4 Ab (BD Biosciences), fixed and permeabilized using BD Cytofix/Cytoperm kit (BD Biosciences), then stained with hIFN-gamma mAb (eBioscience, San Diego, Calif.) and analyzed by flow cytometry. Supernatants were analyzed using human TH1/TH2 BD Cytometric Bead Array Flex Set on BD FACSArray Bioanalyzer (BD Biosciences).

Assay [6] deals with BMDCs. The experiment in a line: In vitro serum-starvation DC survival assay (propidium iodide). The format is cell-based, murine. Particulars: relative to non-transduced DCs treated with CD40L or untreated BMDCs. The source says:
In addition to DC activation state, DC longevity is another critical variable that influences the generation of T cell-dependent immunity. In fact, CTL-mediated killing of DCs is considered to be a significant mechanism for modulating immune responses while protecting the host from autoimmune pathologies^55,56. Other work has established that CD40 stimulation of DCs prolongs their survival by a variety of mechanisms, including upregulation of the anti-apoptotic protein bcl-XL and the granzyme B inhibitor, Spi-6^57,58. The effects of iCD40 relative to CD40L on DC survival were compared in an in vitro serum-starvation culture assay (FIG. 11E).

With Lipopolysaccharide [LPS], the “IL12-p70 induced by TLR ligand in iCD40-DCs” value (shortened to “IL12-p70 induced by TLR ligand”) in assay [1] is “synergized with CD40 signaling”. For the same molecule, in assay [2], the “SOCS1 induction” value is on record as “up-regulated SOCS1 expression”. The “Time of peak IL-12p70/p40 synthesis” value in assay [3] worked out at 8 h. Further, the “Protection against GM-CSF deprivation-mediated DC death” value in assay [4] was “protect against GM-CSF deprivation-mediated DC death”.

Pam3 CSK4: in assay [1], the “IL12-p70 induced by TLR ligand” value was “only low levels”. On the same count and under the same terms, with FSL-1 the entry was “only low levels”. Consider monophosphoryl lipid A [MPL], for which the “IL12-p70 induced by TLR ligand” value in assay [1] is listed as “synergized with CD40 signaling”. The “IFN-gamma production in CD4+ T cells” value in assay [5] is given as “not induced”. As for `CC[C@H](C(=O)N1CCCC[C@H]1C(=O)O[C@H](CCc1ccc(OC)c(OC)c1)c1cccc(OCC(=O)NCC(CNC(=O)COc2cccc([C@@H](CCc3ccc(OC)c(OC)c3)OC(=O)[C@@H]3CCCCN3C(=O)[C@@H](CC)c3cc(OC)c(OC)c(OC)c3)c2)CN(C)C)c1)c1cc(OC)c(OC)c(OC)c1` [AP20187], the “DC longevity” value in assay [6] is “even further enhanced this survival effect”.

B1: CD40L: CD40 ligand (Alexis Biochemicals) (protein)
chain: GDQNPQIAAHVISEASSKTTSVLQWAEKGYYTMSNNLVTLENGKQLTVKRQGLYYIYAQVTFCSNREASSQAPFIASLCLKSPGRFERILLRAANTHSSAKPCGQQSIHLGGVFELQPGASVFVNVTDPSQVSHGTGFTSFGLLKL
As for B1, in assay [3], the “Time of peak IL-12p70/p40 synthesis” value was 8 h.
